Data on 1 molecule can be found in patent US6946475B1, “Anticancer calcium channel blockers” (University of Virginia Patent Foundation, priority 1999, dated 2005).

For series [1], the system named is DU145 (prostate cancer cell). Nature of the series: Measurement of cellular proliferation, DU145 cells. It counts as cell-based. The note with it: DU 145, 48 hours. Here is the method: (§1) Measurement of cellular proliferation: LNCaP cells at 2.5×10^4/well or PC3 cells at 5×10^4/well, both in a final volume of 100 μl, were plated in triplicate in standard flat bottom 96 well tissue culture plates in the presence of drug or vehicle (DMSO). Unless otherwise indicated, cells were grown for 48 hours at 37° C. in a CO2 incubator. Relative cell growth was determined with the CellTiter 96 aqueous cell proliferation assay (Promega, Madison, Wis.) as described by the manufacturer using an automated plate reader. Results were calculated in a blinded fashion and are means of triplicate determinations.
(§2) For the 48 hour proliferation, cells were cultured with calcium channel antagonists or without calcium channel antagonists. The IC50 values of the calcium channel antagonists were determined.
(§3) Using the measurement cell proliferation assay described hereinabove, the cell lines Jurkat, LNCap (prostate cancer cell), PC-31 (prostate cancer cell), DU145 (prostate cancer cell), MDA-468 (breast cancer cell), MDA-36 (Breast cancer cell), MCF-7 (breast cancer cell), MIA PaCa-2 (pancreatic cancer cell), Hep G2 (liver cancer cell), A549 (non-small cell lung cancer cells), NCI H460 (non-small cell lung cancer cells), HT-29 (colon cancer cell), HCT-116 (colon cancer cell) and SK OV-3 (ovarian cancer cell) were cultured in the presence of TH-1177, TH-1205, TH-1201, TH-2109, TH-2029, TH-2043, TN-2085 and TH-2279.

In series [2] the test system is MDA-468 (breast cancer cell). Nature of the series: Measurement of cellular proliferation, MDA-468 cells. In kind it is cell-based. Particulars: MDA-468, 48 hours. Here is the method:
as §1, §2, §3

In series [3] the test system is A549 (non-small cell lung cancer cells). In words: Measurement of cellular proliferation, A549 cells. The note with it: A549, 48 hours. In kind it is cell-based. Here is the method:
as §1, §2, §3

Series [4] relates to HT-29 (colon cancer cell). Nature of the series: Measurement of cellular proliferation, HT-29 cells. In kind it is cell-based. Particulars: HT-29, 48 hours. The procedure: as §1, §2, §3
In series [5] the test system is SK OV-3 (ovarian cancer cell). Nature of the series: Measurement of cellular proliferation, SK OV-3 cells. It counts as cell-based. The note with it: SK-OV-3, 48 hours. The procedure: as §1, §2, §3
Series [6] concerns Ca2+ entry in PC3 cells. Nature of the series: Measurement of intracellular Ca2+ concentration (Ca2+ entry), PC3 cells. In kind it is cell-based, human. The procedure:
Cells were incubated in growth media containing 1 μM of the acetoxy-methyl ester of the Ca^2+-sensitive fluorescent dye indo-1 (indo-1/AM, Molecular Probes, Eugene, Oreg.) for 1 hour at 37° C. Cells were washed three times in buffer A (10 mM HEPES, pH 7.4, 1 mM MgCl2, 3 mM KCl, 1 mM CaCl2, 140 mM NaCl, 0.1% glucose, 1% fetal bovine serum) and suspended to a final concentration of 10^6/ml. Prior to stimulation, cells were warmed to 37° C. Prior to stimulation, cells were also incubated with drug, calcium channel antagonists and the IC50 values were determined. Changes in [Ca^2+] were monitored in an SLM 8100C spectrofluorometer (SLM/Aminco, Urbana, Ill.) using previously published methods, Haverstick, et al. (1998) Cell Calcium, 23: 361-368; Densmore, et al. (1996) Am. J. Physiol., 271:C1494-1503, incorporated herein by reference.
Calcium influx into the cell is suitably stimulated using either (1) a physiological ligand or (2) an endoplasmic reticulum (ER) ATPase inhibitor. Preferably, a physiological ligand is used to stimulate calcium influx into the cell.
Ir. the experiment depicted in FIG. 4A, TH-1177 was added before the cells were stimulated with ATP. […] By 70 s after ATP addition, release of Ca^2+ from the internal storage pool was largely over (for example, see FIG. 5 below) and the maintenance of elevations of [Ca^2+]i over baseline was dependent on Ca entry from the extracellular compartment. […] Therefore, TH-1177 interacts with the Ca^2+ influx pathway.
The efficiency of TH-1177 at blocking Ca^2+ entry was assessed by comparison to the effect of chelation of extracellular Ca^2+ with EGTA, which was considered 100% inhibition of Ca^2+ entry.
The data presented above provide that TH-1177 inhibited the stimulated increase in [Ca^2+]i by blockage of Ca^2+ entry. […] This increase represented release of Ca^2+ from the internal storage pool. Addition of TH-1177 had no effect on the size of this change in [Ca^2+]i. […]

The nature of series [7]: Toxicity in SCID mice without tumors. The note with it: 180 mg/kd/d. It counts as in vivo. The procedure:
Four SCID mice without tumors were given TH-1177 at a dose of 180 mg/kd/d.

The target of series [8] is T1, α1H subunit of a calcium channel of a human heart (Homo sapiens, UniProt O95180).
T1 construct: expressed in transfected cells; host or cells: Xenopus oocytes (so in the source), pcDNA3 plasmid
T1 sequence (O95180 whole entry): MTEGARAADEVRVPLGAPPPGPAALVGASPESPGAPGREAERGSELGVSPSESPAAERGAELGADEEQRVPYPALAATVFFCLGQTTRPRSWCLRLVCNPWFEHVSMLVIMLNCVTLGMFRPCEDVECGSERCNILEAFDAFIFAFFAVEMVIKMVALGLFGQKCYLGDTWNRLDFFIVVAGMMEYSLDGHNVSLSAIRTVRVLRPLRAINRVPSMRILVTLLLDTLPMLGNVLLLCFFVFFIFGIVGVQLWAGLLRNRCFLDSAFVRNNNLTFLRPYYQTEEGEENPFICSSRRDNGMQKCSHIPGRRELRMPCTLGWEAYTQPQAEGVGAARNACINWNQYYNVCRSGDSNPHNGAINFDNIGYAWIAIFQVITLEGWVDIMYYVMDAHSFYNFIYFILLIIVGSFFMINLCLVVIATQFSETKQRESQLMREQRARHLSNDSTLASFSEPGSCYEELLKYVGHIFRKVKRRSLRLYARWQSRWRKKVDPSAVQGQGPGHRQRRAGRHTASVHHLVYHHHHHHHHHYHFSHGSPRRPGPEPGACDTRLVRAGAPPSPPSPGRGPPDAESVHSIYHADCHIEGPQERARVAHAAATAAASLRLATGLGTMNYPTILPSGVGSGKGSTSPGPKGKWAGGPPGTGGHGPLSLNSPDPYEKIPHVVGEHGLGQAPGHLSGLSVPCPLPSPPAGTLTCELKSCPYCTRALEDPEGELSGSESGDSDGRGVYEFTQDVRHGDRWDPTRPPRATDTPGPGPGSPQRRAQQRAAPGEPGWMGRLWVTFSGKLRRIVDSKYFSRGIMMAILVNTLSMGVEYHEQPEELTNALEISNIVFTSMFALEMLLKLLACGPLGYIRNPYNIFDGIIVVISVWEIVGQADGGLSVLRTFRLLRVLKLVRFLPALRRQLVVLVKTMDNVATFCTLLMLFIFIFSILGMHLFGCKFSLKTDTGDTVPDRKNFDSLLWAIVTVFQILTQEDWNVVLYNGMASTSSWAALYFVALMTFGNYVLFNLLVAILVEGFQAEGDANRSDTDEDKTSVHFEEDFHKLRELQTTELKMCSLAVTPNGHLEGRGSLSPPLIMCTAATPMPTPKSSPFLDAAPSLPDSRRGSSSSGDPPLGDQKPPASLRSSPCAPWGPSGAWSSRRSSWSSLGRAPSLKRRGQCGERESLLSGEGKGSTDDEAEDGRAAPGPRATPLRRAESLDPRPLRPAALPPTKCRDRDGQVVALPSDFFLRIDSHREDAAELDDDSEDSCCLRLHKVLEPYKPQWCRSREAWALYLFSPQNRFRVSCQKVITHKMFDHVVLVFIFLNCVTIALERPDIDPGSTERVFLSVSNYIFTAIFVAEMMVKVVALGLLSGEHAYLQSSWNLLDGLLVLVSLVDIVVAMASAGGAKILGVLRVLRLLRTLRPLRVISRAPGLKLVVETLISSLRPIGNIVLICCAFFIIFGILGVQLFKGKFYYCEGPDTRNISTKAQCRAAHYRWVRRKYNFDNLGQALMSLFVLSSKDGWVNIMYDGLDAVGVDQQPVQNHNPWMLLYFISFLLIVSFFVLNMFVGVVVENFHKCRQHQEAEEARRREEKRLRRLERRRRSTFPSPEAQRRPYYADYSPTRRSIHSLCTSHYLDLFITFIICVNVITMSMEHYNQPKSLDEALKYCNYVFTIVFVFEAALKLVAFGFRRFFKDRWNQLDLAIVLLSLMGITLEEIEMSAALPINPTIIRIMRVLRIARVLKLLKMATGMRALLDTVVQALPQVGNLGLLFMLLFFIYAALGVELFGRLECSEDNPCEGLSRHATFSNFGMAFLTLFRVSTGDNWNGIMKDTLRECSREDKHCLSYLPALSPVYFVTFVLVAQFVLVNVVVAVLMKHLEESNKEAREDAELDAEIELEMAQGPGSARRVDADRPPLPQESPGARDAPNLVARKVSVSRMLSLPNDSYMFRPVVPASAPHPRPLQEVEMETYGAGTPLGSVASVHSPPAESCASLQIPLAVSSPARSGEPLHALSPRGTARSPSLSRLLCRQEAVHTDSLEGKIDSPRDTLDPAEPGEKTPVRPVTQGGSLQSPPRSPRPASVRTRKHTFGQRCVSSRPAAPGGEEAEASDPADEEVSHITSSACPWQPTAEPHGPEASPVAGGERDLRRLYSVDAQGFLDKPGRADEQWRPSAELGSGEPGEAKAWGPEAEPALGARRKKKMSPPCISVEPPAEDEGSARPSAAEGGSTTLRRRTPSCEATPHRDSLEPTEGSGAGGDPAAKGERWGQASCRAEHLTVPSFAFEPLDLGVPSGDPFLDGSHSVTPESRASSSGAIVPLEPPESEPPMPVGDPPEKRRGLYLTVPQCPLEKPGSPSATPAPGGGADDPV
Nature of the series: Whole cell current recording, Xenopus oocytes transfected with α1H subunit. In kind it is cell-based. The text has this: Xenopus oocytes were transfected with the α1H subunit of a calcium channel of a human heart prepared in accordance with the procedure described by Cribbs, et al. in Circulation Research, 1998, 83, 103-109, the contents of which are incorporated by reference. The α1H plasmid was obtained by cloning the α1H sequence into the EcoRV-X baI site of the transfection vector pcDNA3, in accordance with the procedure described in the Cribbs, et al. article. Xenopus oocyte cells (1×10^5 per 35 mm dish) were transfected with 2 μg of alpha 1H-Tx plasmid. […] The internal pipette solution contained (mmol/L) CsCl 55, CS SO3 75, MgCl2 10, EGTA 0.1, and HEPES 10 (pH adjusted to 7.2 with (CsOH). Currents were recorded using an Axopatch 200A, a Digidata 1200 A/D converter and pCLAMP software (Axon Instruments, Inc.).
The current of the cell in the depolarized cell was recorded over time (control). Within a few minutes after the control plot was recorded, the cells were again depolarized, but this time, the bath contained in addition 10 μM TH-1177. The current was recorded for the same length of time as the control. The current was recorded at about zero pA. Then the cells in the bath containing 10 μM TH-1177 were depolarized again, but this time the bath medium containing TH-1177 was aspirated out and replaced with fresh calcium medium depolarizing medium and the current was measured.

Regarding `COc1ccc(CCN2CCC[C@H]2COC(c2ccccc2)c2ccc(Cl)cc2)cc1` (stereo partly drawn) [TH-1177], the IC50 (in general, the point on the concentration scale where inhibition reaches its midpoint) in series [1] is 19 µM; in series [2], 13 µM; in series [3] it was 71 µM; in series [4] it was roughly 100 µM; in series [5] it was 25 µM; in series [6] (EGTA chelation of extracellular Ca2+ considered 100% inhibition, read-out: IC50 for blocking Ca2+ entry, PC3 cells) it was 16 µM. Besides, the “Effect on increase in [Ca2+]i stimulated by ATP” value in series [6] (PC3, 1 mM ATP, drug added before) is listed as “concentration dependent inhibition”. Further, the “Effect on release of Ca2+ from the internal storage pool” value in series [6] (PC3, EGTA in medium, 1 mM ATP) is “no effect”. In addition, in series [7], the “Gross findings at necropsy” value is reported as “no gross abnormalities”. Moreover, the “Histological examination of kidney, adrenal gland, heart and liver” value in series [7] was “within normal limits”. The “Current in depolarized α1H-transfected cells” value in series [8] (10 μM TH-1177 in bath) is “about zero”. Moreover, the “Ability of calcium to cross the cell membrane” value in series [8] (α1H-transfected Xenopus oocytes, 10 μM, restored on washout) is recorded as “inhibits”.
